pIC50: −log10 of the molar value.
Columns and labels:
Format in all cases: cell-based, human
Wnt/β-catenin signaling [1] = experiment: Inhibitory effect on Wnt/β-catenin signaling in mesenchymal stem cells (E7-TCF4 luciferase); settings: for inhibitory effect on Wnt/β-catenin signaling in mesenchymal stem cells: E7-TCF4 cells, day 8 after compound addition, compared with control 0.1% DMSO; for inhibitory effect on Wnt/β-catenin signaling pathway in mesenchymal stem cells compared with IC-2: concentration equal to or lower than that of IC-2
Procedure: A pTCF4-CMVpro-GL4.20 plasmid vector, having 3 copies of TCF4 motifs (CCT TTG ATC) upstream of aCMV promoter in a multiple cloning site of pGL4.20 (Promega Corp., Fitchburg, Wis.), was linearized and stably transfected into UE7T-13 cells to prepare E7-TCF4 cells. Also, a pCMVpro-GL4.20 plasmid vector, having a CMV promoter in a multiple cloning site of pGL4.20, was linearized and stably transfected into UE7T-13 cells. The resulting stable cells (E7-CMV cells) were cultured, like UE7T-13 cells, in 10% FBS/DMEM containing 0.25 μg/mL puromycin.
UE7T-13 cells were used to measure Wnt/β-catenin signaling activity. The concentrations of the respective compounds were as described in FIG. 42. Each control sample used was 0.1% DMSO, a solvent for each compound.
First, 70 to 90% confluent E7-TCF4 cells and E7-CMV cells were harvested and seeded (n=3) at 1.6758×10^4 cells/well of a 24-well plate (9.0×10^3 cells/cm^2). One day after that, each compound was added to the cells and the mixture was cultured at 37° C. Day 4 after the compound addition, the culture medium was changed.
At day 1, 4, or 8 after the compound treatment, the culture medium was discarded, and 100 μL of room temperature 5×Passive Lysis Buffer (PLB), which had been diluted 5-fold with MilliQ water, was added to each well. Next, the plate was shaken at room temperature for 15 min and was then frozen at −30° C. overnight. A Luciferase Assay Substrate was diluted with 10 mL of room temperature Luciferase Assay Buffer II to prepare Luciferase Assay Reagent II (LARII). The frozen PLB lysate samples were thawed and permeabilized for 15 min. Then, 10 μL aliquots were added to wells of a 96-well white plate. While 50 μL aliquots of LARII were each added to each well, luminescence was quantified by using a 1420 multi-label counter ARVO MX to determine firefly luciferase activity.

Wnt/β-catenin signaling [2] = experiment: Inhibitory effect on Wnt/β-catenin signaling in liver stellate cells (LX-2, TCF4 luciferase); settings: concentration equal to or lower than that of IC-2
Procedure: While each compound was added at concentrations where the cell growth of fibrosis-causing liver stellate LX-2 cells was reduced to about 50 to 80%, Wnt/β-catenin signaling activity was measured. […] The concentrations of the respective compounds were as described in FIG. 41. Each control sample used was 0.1% DMSO, a solvent for each compound.
LX-2 cells, which were cultured and maintained by using 10% FBS/DMEM, were harvested and seeded (n=3) in 1% FBS/DMEM at 4.0×10^4 cells per well of a 24-well plate. Next, 25 μL of Opti-MEM (Gibco, Life Technologies Corp., Carlsbad, Calif.) containing 50 ng of pTCF4-CMVpro-GL4.20, having 3 copies of TCF motifs (CCT TTG ATC) upstream of a CMV promoter in a multiple cloning site of pGL4.20 (Promega), and 5 ng of pRL-CMV Vector (Promega) and 25 μL of Opti-MEM containing 0.4 μL of Lipofectamine 2000 (Invitrogen, Life Technologies Corp., Carlsbad, Calif.) were mixed and incubated at room temperature for 20 min. At 20 h after the cell seeding, the mixture was added to each well, so that both reporter plasmids were transiently transfected into the cells. After additional 4 h, 2.5 ng/mL of TGF-β and each compound were added to the cells and the mixture was cultured at 37° C.
At 24 and 48 h after the compound treatment, the culture medium was discarded, and 100 μL of room temperature 5×Passive Lysis Buffer (PLB), which had been diluted 5-fold with MilliQ water, was added to each well. Next, the plate was shaken at room temperature for 15 min and was then frozen at −30° C. overnight. A Luciferase Assay Substrate was diluted with 10 mL of room temperature Luciferase Assay Buffer II to prepare Luciferase Assay Reagent II (LARII). Then, 1 μL of Stop&Glo Substrate was diluted with 49 μL of room temperature Stop&Glo Buffer to prepare Stop&Glo (Promega) in a quantity enough for samples.
The frozen PLB lysate samples were thawed and permeabilized for 15 min. After that, 50 μl aliquots of LARII were dispensed into 3.5 mL test tubes (Sarstedt, AG & Co., Numbrecht, Germany) and 10 μL of each frozen PLB lysate sample was added and mixed well. Subsequently, luminescence was quantified by using a MiniLumat LB 9506 (Berthold Technologies GmbH & Co, Bad Wildbad, Germany) to measure firefly luciferase activity. After the measurement, 50 μL of Stop&Glo was added and mixed well and luminescence was then quantified by using the MiniLumat LB 9506 to determine Renilla luciferase activity. The measurement results were obtained by dividing the firefly luciferase activity by the Renilla luciferase activity.

HuH-7 cells = experiment: Growth inhibitory effect on cancer cells (WST assay), Example 2.3; settings: for pIC50: HuH-7 cells, WST assay, concentrations 0-50 μM, control 0.1% DMSO; for IC50 compared with IC-2: comparison with IC-2
Procedure: HuH-7 cells, a human liver cancer cell line, were cultured on 10-cm cell culture dishes (TPP Techno Plastic Products AG, Trasadingen, Switzerland) by using DMEM under conditions at 5% CO2, 37° C., and 100% humidity. When the cells were 70 to 90% confluent, 200 μL of 0.25% Trypsin/1 mM EDTA solution, which had been prepared by diluting the stock solution 10-fold with PBS (−), was added to detach the cells. Then, the cells were centrifuged at 1000 rpm for 3 min at room temperature. The cells recovered were subcultured at a 1:4 split ratio.
First, 70 to 90% confluent HuH-7 cells were harvested and seeded (n=3) at 5×10^3 cells/well of a 96-well plate (TPP). After 24 h, each compound was added to the cells and the mixture was cultured at 37° C. The concentrations of each compound were 0, 10, 20, 30, 40, and 50 μM. For IC-2-506-1, however, the concentrations used were 0, 10, 20, 25, 30, 40, and 50 μM. Each control sample (0 μM) used was 0.1% DMSO, a solvent for each compound.
Next, 0, 24, 48, and 96 h after the compound treatment, 100 μIL of DMEM-diluted 10% Cell Counting Kit-8 (DOJINDO LABORATORIES, Kumamoto) was added. The mixture was incubated at 37° C. for 60 min and its absorbance (at a measurement wavelength of 450 nm/control wavelength of 600 nm) was measured by using a Sunrise Rainbow RC (Tecan Group Ltd., Mannedorf, Switzerland). Absorbance for the cells alone was calculated by subtracting, from the reading obtained, absorbance for 10% Cell Counting Kit-8 alone.
The “*” in figures indicates a significant difference of p<0.05 between 0.1% DMSO and each compound; and the “**” indicates a significant difference of p<0.01 (the same applies to all the figures in Examples).

LX-2 cells = experiment: Anti-fibrosis effect, summary statements on Example 3 (marker not specified); settings: for anti-fibrosis effect compared with IC-2, equal or higher concentration: concentration equal to or higher than that of IC-2
Excerpt: α-Smooth muscle actin (α-SMA), a fibrosis marker, was used as an indicator, and RNA was collected from LX-2 cells treated with each low-molecular-weight compound. Next, an inhibitory effect on fibrosis was examined by real-time RT-PCR.
In addition, instead of α-SMA, another fibrosis marker collagen, type I, alpha 1 (COL1A1) was used as an indicator, and substantially the same protocol was repeated. The concentrations of each compound used were as described in FIG. 34. Each control sample used was 0.1% DMSO, a solvent for each compound. Here, COL1A1 primers used were 5′-CCT CCA GGG CTC CAA CGA G-3′ and 5′-TCAATCACTGTCTTGCCCCA-3′. The annealing was performed at 58° C. for 5 sec. The measurement results were obtained by dividing the calculated value for the COL1A1 gene by the calculated value for the GAPDH gene.

Wnt/β-catenin signaling [3] = experiment: Inhibitory effect on Wnt/β-catenin signaling in liver cancer cells (HuH7-TCF4 luciferase); settings: concentration equal to or lower than that of IC-2
Procedure: A pTCF4-CMVpro-GL4.20 plasmid vector, which had been constructed by inserting 3 copies of TCF4 motifs (CCT TTG ATC) upstream of a CMV promoter into a multiple cloning site of pGL4.20 (Promega Corp., Fitchburg, Wis.), was linearized and stably transfected into the HuH-7 cells. The resulting stable cells (HuH7-TCF4 cells) and HuH-7 cells were likewise cultured.
While each compound was added at concentrations where the growth of HuH-7 cells was reduced to about 50% or less, Wnt/β-catenin signaling activity was measured. The concentrations of the respective compounds were as described in FIG. 40. Control samples used were 0.1% DMSO, a solvent for each compound, and 0.5 μM 5-FU.
First, 70 to 90% confluent HuH7-TCF4 cells were harvested and seeded (n=3) at 5.0×10^4 cells/well of a 24-well plate (TPP). After 24 h, each compound was added to the cells and the mixture was cultured at 37° C.
At 48 h after the compound treatment, the culture medium was discarded, and 100 μL of room temperature 5×Passive Lysis Buffer (PLB) (Promega Corp., Fitchburg, Wis.), which had been diluted 5-fold with MilliQ water, was added to each well. Next, the plate was shaken at room temperature for 15 min and was then frozen at −30° C. overnight. A Luciferase Assay Substrate was diluted with 10 mL of room temperature Luciferase Assay Buffer II to prepare Luciferase Assay Reagent II (LARII) (Promega). The frozen PLB lysate samples were thawed and permeabilized for 15 min. Then, 10 μL aliquots were added to wells of a 96-well white plate (Corning Inc., Corning, N.Y.). While 50 μL aliquots of LARII were each added to each well, luminescence was quantified by using a 1420 multi-label counter ARVO MX (PerkinElmer Singapore Pte Ltd., Singapore) to determine firefly luciferase activity. Note that a significant difference was evaluated by using (two-tailed) Student's t-test. The “*” in figures indicates a significant difference of p<0.05 between 0.1% DMSO and each compound; and the “**” indicates a significant difference of p<0.01 (the same applies to all the figures in Examples).

Compound | pIC50 (HuH-7 cells) | IC50 compared with IC-2 (HuH-7 cells) | inhibitory effect on Wnt/β-catenin signaling pathway in liver stellate cells compared with IC-2 (Wnt/β-catenin signaling [2]) | inhibitory effect on Wnt/β-catenin signaling pathway in liver cancer cells compared with IC-2 (Wnt/β-catenin signaling [3]) | anti-fibrosis effect compared with IC-2, equal or higher concentration (LX-2 cells) | also measured
O=C1C(Cc2ccccc2)N2C(=O)CCN(c3ccccc3[N+](=O)[O-])C2CN1Cc1cccc2ccccc12 (stereo not drawn) [Compound 7c-NT] | 4.44 | – | more potent inhibitory effect | – | – | inhibitory effect on Wnt/β-catenin signaling in mesenchymal stem cells (Wnt/β-catenin signaling [1]): all the compounds except for IC-2-Ar-OMe, 9b, and 7c-NT exhibited a significant inhibitory effect
O=C1C(Cc2ccccc2)N2C(=O)CCN(C(=O)NCc3ccccc3)C2CN1Cc1cccc(Cl)c1Cl (stereo not drawn) [IC-2-506-1] | 4.85 | lower IC50 than IC-2 | more potent inhibitory effect | more potent inhibitory effect | more potent anti-fibrosis effect | anti-tumor effect compared with IC-2 (HuH-7 cells; at a concentration lower than that of IC-2): more potent anti-tumor effect
COc1ccc(CN2CC3N(C(=O)NCc4ccccc4)CCC(=O)N3C(Cc3ccccc3)C2=O)cc1 (stereo not drawn) [IC-2-Ar-OMe] | – | – | – | – | – | inhibitory effect on Wnt/β-catenin signaling in mesenchymal stem cells (Wnt/β-catenin signaling [1]): all the compounds except for IC-2-Ar-OMe, 9b, and 7c-NT exhibited a significant inhibitory effect
O=C1C(Cc2ccccc2)N2C(=O)CCN(C(=O)NCc3ccccc3)C2CN1Cc1ccc([N+](=O)[O-])cc1 (stereo not drawn) [IC-2-Ar—NO2] | – | – | – | – | – | inhibitory effect on Wnt/β-catenin signaling pathway in mesenchymal stem cells compared with IC-2 (Wnt/β-catenin signaling [1]): more potent inhibitory effect

Continued, in another order:

pIC50 (HuH-7 cells) | IC50 compared with IC-2 (HuH-7 cells) | Compound | inhibitory effect on Wnt/β-catenin signaling pathway in liver stellate cells compared with IC-2 (Wnt/β-catenin signaling [2]) | inhibitory effect on Wnt/β-catenin signaling pathway in liver cancer cells compared with IC-2 (Wnt/β-catenin signaling [3]) | anti-fibrosis effect compared with IC-2, equal or higher concentration (LX-2 cells) | also measured
4.74 | lower IC50 than IC-2 | O=C1C(Cc2ccccc2)N2C(=O)CCN(C(=O)NCc3ccccc3)C2CN1Cc1ccc(Cl)c(Cl)c1 (stereo not drawn) [IC-2-506-3] | more potent inhibitory effect | – | – | anti-fibrosis effect compared with IC-2, lower concentration (LX-2 cells; concentration even lower than that of IC-2): more potent anti-fibrosis effect
4.48 | – | O=C1C(Cc2ccccc2)N2C(=O)CCN(C(=O)NCc3ccc(O)cc3)C2CN1Cc1cccc2ccccc12 (stereo not drawn) [IC-2-OH] | – | more potent inhibitory effect | more potent anti-fibrosis effect | –
4.35 | – | O=C1C(Cc2ccccc2)N2C(=O)CCN(C(=O)NCc3ccccc3)C2CN1Cc1ccc(Cl)cc1 (stereo not drawn) [IC-2-Ar—Cl] | – | more potent inhibitory effect | more potent anti-fibrosis effect | inhibitory effect on Wnt/β-catenin signaling pathway in mesenchymal stem cells compared with IC-2 (Wnt/β-catenin signaling [1]): more potent inhibitory effect
4.46 | – | COc1ccc(CNC(=O)N2CCC(=O)N3C(Cc4ccccc4)C(=O)N(Cc4cccc5ccccc45)CC23)cc1 (stereo not drawn) [IC-2-OMe] | – | more potent inhibitory effect | – | –
4.69 | lower IC50 than IC-2 | COCOc1ccc(CNC(=O)N2CCC(=O)N3C(Cc4ccccc4)C(=O)N(Cc4cccc5ccccc45)CC23)cc1 (stereo not drawn) [IC-2-OMOM] | – | more potent inhibitory effect | – | –

— US10597398B2, “Suppression and regeneration promoting effect of low molecular weight compound on cancer and fibrosis” (NATIONAL UNIVERSITY CORPORATION TOTTORI UNIVERSITY, priority 2015, dated 2020)
